Measured values from patent US8530172B2, “Methods and materials for assessing enzyme-nucleic acid complexes” (Mayo Foundation for Medical Education and Research, priority 2010, dated 2013).

Key:
[1] = target: T1, topo I-DNA covalent complexes (Homo sapiens, UniProt P11387); test: Band depletion assay, A549 cells (SDS-PAGE immunoblot and slot blot); assay type: cell-based; conditions: increasing TPT concentrations up to 100 μM, 60 minutes
T1 construct: separate topo I-DNA covalent complexes from free topo I in A549 cell lysates; endogenous in cells; host or cells: A549
T1 sequence (P11387 1-765): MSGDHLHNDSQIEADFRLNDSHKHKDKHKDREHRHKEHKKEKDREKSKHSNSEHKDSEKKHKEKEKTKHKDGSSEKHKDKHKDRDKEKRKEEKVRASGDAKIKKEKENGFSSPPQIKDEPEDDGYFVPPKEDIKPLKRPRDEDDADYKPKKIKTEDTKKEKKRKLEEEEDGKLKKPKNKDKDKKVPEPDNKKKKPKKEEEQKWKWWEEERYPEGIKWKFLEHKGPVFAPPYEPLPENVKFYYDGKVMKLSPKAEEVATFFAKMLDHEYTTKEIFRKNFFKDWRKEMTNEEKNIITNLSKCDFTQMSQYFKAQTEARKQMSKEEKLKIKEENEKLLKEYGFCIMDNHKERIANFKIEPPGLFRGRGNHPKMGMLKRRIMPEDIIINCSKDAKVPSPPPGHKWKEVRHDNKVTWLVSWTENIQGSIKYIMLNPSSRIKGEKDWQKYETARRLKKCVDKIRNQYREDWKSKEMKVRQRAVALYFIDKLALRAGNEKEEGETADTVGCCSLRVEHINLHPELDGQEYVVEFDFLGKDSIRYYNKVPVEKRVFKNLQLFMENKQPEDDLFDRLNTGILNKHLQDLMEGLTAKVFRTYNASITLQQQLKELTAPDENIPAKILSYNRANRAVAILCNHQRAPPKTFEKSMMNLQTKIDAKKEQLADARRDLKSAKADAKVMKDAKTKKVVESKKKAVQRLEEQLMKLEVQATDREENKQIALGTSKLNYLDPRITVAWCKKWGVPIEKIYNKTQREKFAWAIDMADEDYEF
Procedure: Band depletion assays were performed as described elsewhere (Kaufmann and […], Methods Mol. Biol., 94:253-268 (1999)). A549 cells grown in 100 mm culture dishes to 40-60% confluence were treated with increasing concentrations of TPT in medium B for 60 minutes. After treatment, cells were immediately solubilized in 6 M guanidine hydrochloride containing 250 mM Tris-HCl (pH 8.5 at 20° C.), 10 mM EDTA, 1% (v/v) 2-mercaptoethanol, and 1 mM freshly added phenylmethylsulfonyl fluoride. After preparation, for electrophoresis as described elsewhere (Kaufmann et al., Blood, 89:2098-2104 (1997), aliquots containing […] of protein (determined by the bicinchoninic acid method (Smith et al., Anal. Biochem., 150:76-85 (1985)) were either slot blotted for immunoblotting with α-TopoI cc antibody or separated on SDS-polyacrylamide gels, eletrophoretically transferred to nitrocellulose, and probed with C-21 anti-Topo I or, as a loading control anti-Hsp90 mouse (obtained from D. O. Toft; Mayo Clinic; Rochester, Minn.).

[2] = target: T1, topo I-DNA covalent complexes; test: Immunofluorescence (confocal microscopy) in A549 cells; assay type: cell-based
Procedure: Immunofluorescence studies in A549 cells were performed as described elsewhere (Segovis et al., J. Immunol., 182:6933-6942 (2009)) with several modifications. After cells grown on nitric acid-etched coverslips were treated for 1 hour with TPT in medium B, coverslips were fixed in 2% (w/v) paraformaldehyde in calcium- and magnesium-free Dulbecco's phosphate buffered saline (PBS) for 10 minutes at room temperature, washed with PBS, and permeabilized with 0.25% (v/v) Triton X-100 in PBS for 5 minutes. To denature DNA-protein crosslinks, the coverslips were incubated in 1% SDS for 5 minutes (Brown et al., Histochem. Cell Biol., 105:261-267 (1996)), washed three times with PBS, and incubated in a blocking buffer consisting of PBS, 1% (v/v) glycerol, 0.1% glycerol from cold water fish, 5% (v/v) normal goat serum, 0.1% (w/v) BSA, and 0.4% (w/v) sodium azide. Coverslips were incubated overnight in primary antibody, followed by staining with Alexa Fluor 488-, 568-, or 647-conjugated secondary antibody (Invitrogen) diluted at a ratio of 1:1000. α-TopoI cc antibody was used at 1.2 μg/mL, and α-Topo I human IgG (Topogen; Port Orange, Fla.) was used at 1:1000. […] Quantitation and image processing were performed using the Zeiss Zen software package and Adobe Photoshop CS3.

[3] = system: topo I-DNA covalent complexes; test: Flow cytometry, P388/CPT cells (lack detectable topo I); assay type: cell-based, mouse; conditions: 2 μM TPT
Procedure: (§1) A549 and K562 cells were stained using a modified protocol of a protocol described elsewhere (Muslimovic et al., Nat. Protoc., 3:1187-1193 (2008)). After 10^6 cells were treated for 1 hour with TPT in medium B, samples were centrifuged at 300 g for 5 minutes. Cells were then partially lysed for 1 minute in 100 μL extraction buffer, which consisted of 25 mM Tris-HCl (pH 7.5 at 20-22° C.), 1% (w/v) Triton X-100, 1 mM EDTA, 0.01% (w/v) BSA, and 0.2% (w/v) paraformaldehyde then fixed for 10 minutes at 20-22° C. by addition of 1 mL 2% (w/v) paraformaldehyde in PBS. Nuclei were pelleted and incubated for 60 minutes in 100 μL blocking buffer with primary antibody (1 μg/mL for A549 and P388 cells; and 5 μg/mL for K562 cells). Nuclei were washed by addition of 2 mL PBS, pelleted, and incubated for 30 minutes in 100 μL blocking buffer with 1 μg/mL Alexa Fluor 647-conjugated goat anti-mouse IgG (Invitrogen). Nuclei were washed by addition of 2 mL PBS, pelleted, and immediately analyzed on a FACSCanto II flow cytometer (BD Biosciences; San Jose, Calif.) on the APC channel (excitation: 633 nm; emission: 660/20 nm).

[4] = target: T1, topo I-DNA covalent complexes; test: In vivo complexing of enzyme (ICE) assay with immunoblotting, A549 cells; assay type: cell-based; conditions: 10 μM drug, 60 minutes
Procedure: ICE assays were performed as described elsewhere (Subramanian et al., ICE Bioassay; DNA Topoisomerase Protocols: Volume II: Enzymology and Drugs, 2001, pp 137-147; and Gálvez-Peralta et al., Bioorganic & Medicinal Chemistry Letters, 19:4459-4462 (2009)). Briefly, A549 cells grown to 40-60% confluence in 100 mm tissue culture dishes were treated for 60 minutes with 0.1% (v/v) DMSO, 10 μM TPT, or 10 μM etoposide in serum-free RPMI containing 10 mM HEPES, pH 7.4 (medium B). At the end of the incubation, the medium was aspirated, and the cells were rapidly lysed in 1 mL lysis buffer consisting of 1% (w/v) sarkosyl, 10 mM Tris-HCl (pH 8.0 at 20-22° C.) and 1 mM EDTA. Lysate was layered on a cesium chloride gradient and ultracentrifuged at 125,000 g for 21 hours at 20° C. After centrifuge tubes were perforated at the bottom with a 23-gauge needle, 0.5 mL fractions were collected, assayed for the presence of DNA (detectable in fractions 1-4), and slot-blotted onto nitrocellulose membranes. Membranes were then blocked in 5% (w/v) milk in […] NaCl containing 10 mM Tris-HCl (pH 7.4 at 20-22° C.) for 2 hours and incubated in either C-21 anti-topo I IgM antibody (obtained from Y.-C. Cheng; Yale University; New Haven, Conn.) or the α-TopoI cc antibody (diluted to 1 μg/mL in blocking buffer). Western blotting was performed as described elsewhere (Kaufmann, Anal. Biochem., 296:283-286 (2001)).

[5] = target: T2, topo I-DNA covalent complexes (Mus musculus, UniProt Q04750); test: Flow cytometry, wild-type P388 cells; assay type: cell-based; conditions: 2 μM TPT
T2 construct: endogenous in cells; host or cells: P388 (wild type)
T2 sequence (Q04750 1-767): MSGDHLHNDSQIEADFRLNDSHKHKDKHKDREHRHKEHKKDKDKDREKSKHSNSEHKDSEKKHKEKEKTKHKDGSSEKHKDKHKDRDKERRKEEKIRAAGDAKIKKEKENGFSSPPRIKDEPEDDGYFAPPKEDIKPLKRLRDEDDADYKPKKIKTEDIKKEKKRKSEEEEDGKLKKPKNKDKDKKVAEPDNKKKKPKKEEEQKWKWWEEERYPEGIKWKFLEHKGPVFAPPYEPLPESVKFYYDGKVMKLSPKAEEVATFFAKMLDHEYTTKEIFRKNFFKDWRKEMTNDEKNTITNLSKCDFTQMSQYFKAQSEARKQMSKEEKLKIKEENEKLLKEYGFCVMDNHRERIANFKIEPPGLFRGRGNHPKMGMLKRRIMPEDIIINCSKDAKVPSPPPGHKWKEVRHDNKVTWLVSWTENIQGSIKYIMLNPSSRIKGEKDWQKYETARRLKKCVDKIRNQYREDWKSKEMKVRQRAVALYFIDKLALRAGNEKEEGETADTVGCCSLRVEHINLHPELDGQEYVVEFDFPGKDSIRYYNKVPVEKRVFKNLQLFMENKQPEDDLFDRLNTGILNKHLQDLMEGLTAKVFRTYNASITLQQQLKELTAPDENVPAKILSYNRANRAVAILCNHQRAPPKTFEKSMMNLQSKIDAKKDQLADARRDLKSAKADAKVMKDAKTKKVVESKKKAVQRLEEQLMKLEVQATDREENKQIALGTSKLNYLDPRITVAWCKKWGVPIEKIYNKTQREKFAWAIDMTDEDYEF
Procedure: as §1

Row | SMILES | topo I-DNA covalent complex signal (slot blot probed with α-TopoI cc) [1] | total topo I signal at 100 kDa (SDS-PAGE, immunoblot) [1] | α-TopoI cc staining intensity (average number of foci per cell or maximal mean fluorescence) ([2]; TPT 1 hour) | non-nucleolar staining of topo I-DNA complexes (double staining) ([2]; TPT versus untreated) | shift in α-TopoI cc staining intensity [3] | topo I-DNA covalent complexes in DNA fractions after drug exposure (α-TopoI cc blot) [4] | shift in α-TopoI cc staining intensity [5]
1 | CC[C@@]1(O)C(=O)OCc2c1cc1n(c2=O)Cc2cc3c(CN(C)C)c(O)ccc3nc2-1 [TPT, Topotecan] | corresponding increase in signal for topo I-DNA covalent complexes | graduated decrease in the topo I signal at 100 kDa | dose-dependent increase | dramatic increase in non-nucleolar staining of topo I-DNA complexes | this shift was not observed | detected topo I that co-migrates with DNA | rightward shift was detectable
2 | COc1cc([C@@H]2c3cc4c(cc3[C@@H](O[C@@H]3O[C@@H]5CO[C@@H](C)O[C@H]5[C@H](O)[C@H]3O)[C@H]3COC(=O)[C@H]23)OCO4)cc(OC)c1O [etoposide] |  |  |  |  |  | failed to detect | 
